This note sets out measurements from patent US20220192955A1, “AZOXYSTROBIN EFFICACY IN SCALP HEALTH” (The Procter & Gamble Company, priority 2020, published 2022).

Marks after values point to notes of the source that are not given here.

Assay [1] relates to IL-1RA: IL-1α. The assay can be described thus: Scalp tape strip inflammatory cytokines IL-1RA:IL-1α. The class given is in vivo, human. As for the experimental part: Subjects are enrolled in a double-blind, randomized study for all test groups and have Baseline and Week 3 measurements of scalp health taken for flaking, itch and scalp health endpoints. Subjects take home a test product(s) and are instructed on use of test products throughout the study. Test products are solubilized in a hydroalcoholic leave-on formulation. Azoxystrobin raw material is sourced from AK Scientific Inc. (Union City, Calif.) as >97% pure. Azoxystrobin scalp treatment is prepared from a slurry of azoxystrobin in ethanol that is formulated to 0.1% (w/v) in a base chassis of 50% ethanol, 0.35% Ultrez 21 (rheology modifier), 0.05% neutrol TE and water (q.s.). […] Biomarkers of scalp health, including biomarkers of inflammation, itch, oxidative stress and barrier integrity are assessed by non-invasive tape strip sampling of the scalp surface to determine therapeutic resolution. All biomarkers are analyzed from D-Squame® scalp tape samples that are collected from the scalp of subjects before and after scalp treatment with either azoxystrobin or vehicle (Baseline, and Week 3 respectively). These are extracted and analyzed according to published methods (International Journal of Dermatology 2011, 50, 102-113, incorporated by reference herein). […] Human inflammatory cytokines are analyzed to evaluate skin irritation and inflammatory processes. […]

The test system of assay [2] is Histamine. The assay is described as follows: Scalp tape strip histamine (HPLC/MS/MS). The class given is in vivo, human. As to the method:
Subjects are enrolled in a double-blind, randomized study for all test groups and have Baseline and Week 3 measurements of scalp health taken for flaking, itch and scalp health endpoints. Subjects take home a test product(s) and are instructed on use of test products throughout the study. Test products are solubilized in a hydroalcoholic leave-on formulation. Azoxystrobin raw material is sourced from AK Scientific Inc. (Union City, Calif.) as >97% pure. Azoxystrobin scalp treatment is prepared from a slurry of azoxystrobin in ethanol that is formulated to 0.1% (w/v) in a base chassis of 50% ethanol, 0.35% Ultrez 21 (rheology modifier), 0.05% neutrol TE and water (q.s.). […]
Biomarkers of scalp health, including biomarkers of inflammation, itch, oxidative stress and barrier integrity are assessed by non-invasive tape strip sampling of the scalp surface to determine therapeutic resolution. All biomarkers are analyzed from D-Squame® scalp tape samples that are collected from the scalp of subjects before and after scalp treatment with either azoxystrobin or vehicle (Baseline, and Week 3 respectively). These are extracted and analyzed according to published methods (International Journal of Dermatology 2011, 50, 102-113, incorporated by reference herein). […]
Histamine is analyzed by gradient reversed-phase HPLC/MS/MS to evaluate scalp itch. […]

In assay [3] the test system is human serum albumin. The assay can be described thus: Scalp tape strip barrier integrity: human serum albumin. The class given is in vivo.
Description: Subjects are enrolled in a double-blind, randomized study for all test groups and have Baseline and Week 3 measurements of scalp health taken for flaking, itch and scalp health endpoints. Subjects take home a test product(s) and are instructed on use of test products throughout the study. Test products are solubilized in a hydroalcoholic leave-on formulation. […] Azoxystrobin scalp treatment is prepared from a slurry of azoxystrobin in ethanol that is formulated to 0.1% (w/v) in a base chassis of 50% ethanol, 0.35% Ultrez 21 (rheology modifier), 0.05% neutrol TE and water (q.s.). Vehicle scalp treatment is prepared similarly without the addition of azoxystrobin raw material. Subjects apply either azoxystrobin or vehicle scalp treatments daily for 3 weeks. […] All biomarkers are analyzed from D-Squame® scalp tape samples that are collected from the scalp of subjects before and after scalp treatment with either azoxystrobin or vehicle (Baseline, and Week 3 respectively). […] Data analysis is conducted by standard statistical methods and calculations. […] Biochemical markers of skin/scalp barrier integrity are analyzed to evaluate improvements on barrier health. […] Human skin analytes (keratin 1, keratin 10, human serum albumin) are simultaneously quantified using a 3-plea Human Skin Panel LINCOplex Kit (Millipore Corp.). Soluble protein is measured using the BCA™ Protein Assay Kit. […]
Setting [4] is: 0.1% leave-on daily, Week 3, scalp tape strips.

On to `CO/C=C(/C(=O)OC)c1ccccc1Oc1cc(Oc2ccccc2C#N)ncn1` [Azoxystrobin], for which the “IL-1RA: IL-1α ratio, % Change from Baseline” value in assay [1] (setting [4]) is on record as −58.3* %. The “reduction of Interleukin-1 (IL-1RA: IL-1α)” value in assay [1] (compared to a placebo control) is listed as 58%. Besides, the “Histamine Results % Change from Baseline” value in assay [2] (setting [4]) stood at 23.8%. Also, the “histamine reduction compared to placebo control or baseline values (in words)” value in assay [2] (3 weeks of treatment) is given as “does not significantly reduce histamine”. In assay [3] (setting [4]), the “Human Serum Albumin % Change from Baseline” value is listed as −54.1* %. In assay [3] (3 weeks of treatment), the “reduction in human serum albumin (HSA) changed from a baseline” value amounted to 54%.
